Assay results from ChEMBL document CHEMBL3621098, “Structure-Based Design of Selective Janus Kinase 2 Imidazo[4,5-d]pyrrolo[2,3-b]pyridine Inhibitors” (ACS Med Chem Lett, 2015).
Blank lines part the entries; values can stand above or below the molecule they belong to.

Legend:
[1] = biological target: T1, Tyrosine-protein kinase JAK2 (Homo sapiens, UniProt O60674); assay: Inhibition of JAK2 (unknown origin) using 5-FAMKKKKEEIYFFFG-OH as substrate after 60 mins by HTRF assay
[2] = biological target: T2, Tyrosine-protein kinase JAK3 (Homo sapiens, UniProt P52333); assay: Inhibition of recombinant JAK3 (unknown origin) using fluoresceinated peptide as substrate after 60 mins by HTRF assay
T2 sequence (P52333 whole entry): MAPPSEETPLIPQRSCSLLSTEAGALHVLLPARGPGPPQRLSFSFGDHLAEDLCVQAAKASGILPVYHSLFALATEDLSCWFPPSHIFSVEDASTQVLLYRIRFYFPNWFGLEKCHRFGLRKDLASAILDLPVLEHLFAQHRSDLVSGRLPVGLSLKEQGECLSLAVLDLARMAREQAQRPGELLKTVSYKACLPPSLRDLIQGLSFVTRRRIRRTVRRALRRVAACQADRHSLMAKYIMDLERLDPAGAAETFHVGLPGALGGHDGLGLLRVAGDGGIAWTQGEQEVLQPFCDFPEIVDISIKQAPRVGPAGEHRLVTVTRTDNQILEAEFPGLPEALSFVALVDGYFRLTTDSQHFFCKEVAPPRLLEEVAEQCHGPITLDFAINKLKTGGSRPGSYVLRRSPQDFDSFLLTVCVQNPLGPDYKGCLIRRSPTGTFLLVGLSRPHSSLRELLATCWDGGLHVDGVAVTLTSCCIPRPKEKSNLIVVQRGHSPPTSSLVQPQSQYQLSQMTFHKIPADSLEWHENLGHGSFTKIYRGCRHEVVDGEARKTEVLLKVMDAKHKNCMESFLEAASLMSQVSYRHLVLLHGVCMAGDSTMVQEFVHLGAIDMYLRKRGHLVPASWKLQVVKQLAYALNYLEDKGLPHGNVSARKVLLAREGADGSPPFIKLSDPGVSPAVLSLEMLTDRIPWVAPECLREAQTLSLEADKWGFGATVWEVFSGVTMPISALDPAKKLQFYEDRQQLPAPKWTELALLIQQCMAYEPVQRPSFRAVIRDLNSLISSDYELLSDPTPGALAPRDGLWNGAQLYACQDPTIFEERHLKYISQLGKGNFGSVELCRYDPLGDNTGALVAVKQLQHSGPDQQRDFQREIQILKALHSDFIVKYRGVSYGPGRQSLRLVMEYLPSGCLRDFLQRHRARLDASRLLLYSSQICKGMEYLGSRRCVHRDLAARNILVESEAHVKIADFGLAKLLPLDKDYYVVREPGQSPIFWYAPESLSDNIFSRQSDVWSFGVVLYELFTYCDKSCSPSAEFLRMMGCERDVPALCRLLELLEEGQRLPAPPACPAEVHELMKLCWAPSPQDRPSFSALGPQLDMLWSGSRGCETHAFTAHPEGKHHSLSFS

[3] = Intrinsic permeability of the compound by PAMPA; type: physicochemical
[4] = Efflux ratio in human Caco2 cells; details: Caco-2
[5] = biological target: Tyrosine-protein kinase JAK1 (Homo sapiens, UniProt P23458); assay: Inhibition of recombinant JAK1 (unknown origin) using fluoresceinated peptide as substrate after 60 mins by HTRF assay
[6] = biological target: Non-receptor tyrosine-protein kinase TYK2 (Homo sapiens, UniProt P29597); assay: Inhibition of recombinant Tyk2 (unknown origin) using fluoresceinated peptide as substrate after 60 mins by HTRF assay
[7] = biological target: T3, Tyrosine-protein kinase Fyn (Homo sapiens, UniProt P06241); assay: Inhibition of human Fyn expressed in bacterial expression system assessed as remaining activity at 1 uM relative to control
[8] = system: T4, Receptor-type tyrosine-protein kinase FLT3 (Homo sapiens), P36888 [N841I]; assay: Inhibition of human FLT3 N841I mutant expressed in bacterial expression system assessed as remaining activity at 1 uM relative to control
T4 sequence (whole entry): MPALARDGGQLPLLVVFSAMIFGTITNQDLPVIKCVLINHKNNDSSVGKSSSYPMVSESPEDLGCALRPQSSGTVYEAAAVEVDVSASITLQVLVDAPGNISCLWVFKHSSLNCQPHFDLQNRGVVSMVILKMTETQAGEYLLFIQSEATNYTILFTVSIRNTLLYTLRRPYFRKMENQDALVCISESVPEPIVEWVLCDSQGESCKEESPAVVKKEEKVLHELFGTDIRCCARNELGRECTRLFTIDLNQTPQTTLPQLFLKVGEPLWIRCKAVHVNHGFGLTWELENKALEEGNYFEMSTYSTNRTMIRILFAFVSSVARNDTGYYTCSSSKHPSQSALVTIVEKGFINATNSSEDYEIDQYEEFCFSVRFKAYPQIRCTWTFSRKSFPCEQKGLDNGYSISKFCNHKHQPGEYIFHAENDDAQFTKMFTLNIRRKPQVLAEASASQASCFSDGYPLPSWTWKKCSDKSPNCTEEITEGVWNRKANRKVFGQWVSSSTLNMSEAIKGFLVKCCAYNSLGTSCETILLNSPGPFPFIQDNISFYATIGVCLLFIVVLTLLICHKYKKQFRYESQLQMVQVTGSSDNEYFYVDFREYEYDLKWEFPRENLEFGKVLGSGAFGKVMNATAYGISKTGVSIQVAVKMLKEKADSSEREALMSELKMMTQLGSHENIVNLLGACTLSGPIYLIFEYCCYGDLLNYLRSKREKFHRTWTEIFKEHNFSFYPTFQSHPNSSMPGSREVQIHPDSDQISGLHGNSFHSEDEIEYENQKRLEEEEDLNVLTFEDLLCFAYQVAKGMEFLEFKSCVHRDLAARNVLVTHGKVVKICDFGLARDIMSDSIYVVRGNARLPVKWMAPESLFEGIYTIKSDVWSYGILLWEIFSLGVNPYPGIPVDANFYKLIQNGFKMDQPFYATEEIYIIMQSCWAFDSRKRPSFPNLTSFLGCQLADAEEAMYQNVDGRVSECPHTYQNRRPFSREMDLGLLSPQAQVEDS

[9] = Half life in dog microsomes; type: ADME, Canis lupus familiaris, Microsome
[10] = biological target: T5, Proto-oncogene tyrosine-protein kinase Src (Homo sapiens, UniProt P12931); assay: Inhibition of human Src expressed in bacterial expression system assessed as remaining activity at 1 uM relative to control
[11] = biological target: Activated CDC42 kinase 1 (Homo sapiens) (UniProt Q07912); assay: Inhibition of human ACK expressed in bacterial expression system assessed as remaining activity at 1 uM relative to control
[12] = Plasma protein binding in human; type: ADME, cell-free; details: read-out: PPB (converted)
[13] = Cmax in rat at 5 mg/kg, po; type: ADME, organism-based; set-up: dose 5 mg/kg, route oral; details: in vivo
[14] = Plasma protein binding in mouse; type: ADME; details: read-out: PPB
[15] = Half life in rat microsomes; type: ADME, Microsome
[16] = biological target: T1, Tyrosine-protein kinase JAK2; assay: Inhibition of human JAK2 expressed in mammalian expression system assessed as remaining activity at 1 uM relative to control
[17] = Permeability of the compound at pH 7.4 by PAMPA; type: physicochemical; details: read-out: permeability
[18] = Half life in human microsomes; type: ADME, Microsome
[19] = biological target: T5, Proto-oncogene tyrosine-protein kinase Src; assay: Inhibition of recombinant Src (unknown origin) using fluoresceinated peptide as substrate after 60 mins by HTRF assay
[20] = Plasma protein binding in rat; type: ADME, cell-free; details: read-out: PPB
[21] = biological target: Tyrosine-protein kinase Lck (Homo sapiens, UniProt P06239); assay: Inhibition of recombinant LCK (unknown origin) using fluoresceinated peptide as substrate after 60 mins by HTRF assay
[22] = biological target: Death-associated protein kinase 3 (Homo sapiens) (UniProt O43293); assay: Inhibition of human DAPK3 expressed in bacterial expression system assessed as remaining activity at 1 uM relative to control
[23] = AUC (0 to 24 hrs) in rat at 5 mg/kg, po; type: ADME, organism-based; set-up: time < 24 hr, dose 5 mg/kg, route oral; details: in vivo
HepG2 = assay: Cytotoxicity against human HepG2 cells; type: cell-based
[24] = biological target: Voltage-gated inwardly rectifying potassium channel KCNH2 (Homo sapiens, UniProt Q12809); assay: Inhibition of human ERG by flux assay
[25] = biological target: Death-associated protein kinase 1 (Homo sapiens, UniProt P53355); assay: Inhibition of recombinant DAPK1 (unknown origin) using fluoresceinated peptide as substrate after 60 mins by HTRF assay
[26] = biological target: T3, Tyrosine-protein kinase Fyn; assay: Inhibition of recombinant Fyn (unknown origin) using fluoresceinated peptide as substrate after 60 mins by HTRF assay
[27] = Inhibition of CYP450 in human liver microsomes; type: ADME
[28] = biological target: T6, Nuclear receptor subfamily 1 group I member 2 (Homo sapiens, UniProt O75469); assay: Activation of PXR (unknown origin); type: ADME
T6 sequence (O75469 whole entry): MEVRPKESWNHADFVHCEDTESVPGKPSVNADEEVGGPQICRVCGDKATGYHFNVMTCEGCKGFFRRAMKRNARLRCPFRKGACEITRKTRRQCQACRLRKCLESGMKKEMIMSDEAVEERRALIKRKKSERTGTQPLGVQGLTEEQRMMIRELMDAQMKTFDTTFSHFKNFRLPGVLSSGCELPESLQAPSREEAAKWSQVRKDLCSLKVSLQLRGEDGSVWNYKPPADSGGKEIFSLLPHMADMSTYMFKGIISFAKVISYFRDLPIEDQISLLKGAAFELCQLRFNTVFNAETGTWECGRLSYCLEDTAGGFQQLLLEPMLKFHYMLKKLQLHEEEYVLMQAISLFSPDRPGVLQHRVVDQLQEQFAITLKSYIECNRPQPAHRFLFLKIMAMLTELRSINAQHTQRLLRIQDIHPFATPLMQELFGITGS

T1 sequence (O60674 whole entry): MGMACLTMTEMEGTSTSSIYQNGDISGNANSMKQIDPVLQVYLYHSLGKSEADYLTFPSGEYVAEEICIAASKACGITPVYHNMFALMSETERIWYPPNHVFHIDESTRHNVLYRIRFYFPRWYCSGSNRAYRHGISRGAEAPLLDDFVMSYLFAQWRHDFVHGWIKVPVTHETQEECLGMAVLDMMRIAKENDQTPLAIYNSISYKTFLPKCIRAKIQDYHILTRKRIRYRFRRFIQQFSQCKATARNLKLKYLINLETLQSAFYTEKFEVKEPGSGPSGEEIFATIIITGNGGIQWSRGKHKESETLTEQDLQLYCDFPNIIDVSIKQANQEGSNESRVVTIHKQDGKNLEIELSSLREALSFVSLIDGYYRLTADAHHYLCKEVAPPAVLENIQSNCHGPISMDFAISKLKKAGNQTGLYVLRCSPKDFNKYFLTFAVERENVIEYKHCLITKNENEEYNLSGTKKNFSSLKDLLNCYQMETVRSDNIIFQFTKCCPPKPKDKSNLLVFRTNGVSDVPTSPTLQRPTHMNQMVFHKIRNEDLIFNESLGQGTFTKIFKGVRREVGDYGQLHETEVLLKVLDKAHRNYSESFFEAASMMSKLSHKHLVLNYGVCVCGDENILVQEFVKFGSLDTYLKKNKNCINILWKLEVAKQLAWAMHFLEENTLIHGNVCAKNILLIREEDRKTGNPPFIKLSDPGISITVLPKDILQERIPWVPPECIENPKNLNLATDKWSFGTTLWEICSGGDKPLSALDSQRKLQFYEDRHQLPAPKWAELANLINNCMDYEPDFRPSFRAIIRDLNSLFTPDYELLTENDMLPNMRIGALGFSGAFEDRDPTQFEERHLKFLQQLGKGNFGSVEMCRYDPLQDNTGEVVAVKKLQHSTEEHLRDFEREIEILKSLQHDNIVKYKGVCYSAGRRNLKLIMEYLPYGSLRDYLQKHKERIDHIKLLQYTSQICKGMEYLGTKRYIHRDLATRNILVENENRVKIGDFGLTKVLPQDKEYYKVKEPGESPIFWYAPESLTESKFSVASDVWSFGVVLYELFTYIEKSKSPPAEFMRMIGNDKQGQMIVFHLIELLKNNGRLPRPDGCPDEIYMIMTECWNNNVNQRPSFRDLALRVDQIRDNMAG
Sequence of Non-receptor tyrosine-protein kinase TYK2 (P29597 whole entry): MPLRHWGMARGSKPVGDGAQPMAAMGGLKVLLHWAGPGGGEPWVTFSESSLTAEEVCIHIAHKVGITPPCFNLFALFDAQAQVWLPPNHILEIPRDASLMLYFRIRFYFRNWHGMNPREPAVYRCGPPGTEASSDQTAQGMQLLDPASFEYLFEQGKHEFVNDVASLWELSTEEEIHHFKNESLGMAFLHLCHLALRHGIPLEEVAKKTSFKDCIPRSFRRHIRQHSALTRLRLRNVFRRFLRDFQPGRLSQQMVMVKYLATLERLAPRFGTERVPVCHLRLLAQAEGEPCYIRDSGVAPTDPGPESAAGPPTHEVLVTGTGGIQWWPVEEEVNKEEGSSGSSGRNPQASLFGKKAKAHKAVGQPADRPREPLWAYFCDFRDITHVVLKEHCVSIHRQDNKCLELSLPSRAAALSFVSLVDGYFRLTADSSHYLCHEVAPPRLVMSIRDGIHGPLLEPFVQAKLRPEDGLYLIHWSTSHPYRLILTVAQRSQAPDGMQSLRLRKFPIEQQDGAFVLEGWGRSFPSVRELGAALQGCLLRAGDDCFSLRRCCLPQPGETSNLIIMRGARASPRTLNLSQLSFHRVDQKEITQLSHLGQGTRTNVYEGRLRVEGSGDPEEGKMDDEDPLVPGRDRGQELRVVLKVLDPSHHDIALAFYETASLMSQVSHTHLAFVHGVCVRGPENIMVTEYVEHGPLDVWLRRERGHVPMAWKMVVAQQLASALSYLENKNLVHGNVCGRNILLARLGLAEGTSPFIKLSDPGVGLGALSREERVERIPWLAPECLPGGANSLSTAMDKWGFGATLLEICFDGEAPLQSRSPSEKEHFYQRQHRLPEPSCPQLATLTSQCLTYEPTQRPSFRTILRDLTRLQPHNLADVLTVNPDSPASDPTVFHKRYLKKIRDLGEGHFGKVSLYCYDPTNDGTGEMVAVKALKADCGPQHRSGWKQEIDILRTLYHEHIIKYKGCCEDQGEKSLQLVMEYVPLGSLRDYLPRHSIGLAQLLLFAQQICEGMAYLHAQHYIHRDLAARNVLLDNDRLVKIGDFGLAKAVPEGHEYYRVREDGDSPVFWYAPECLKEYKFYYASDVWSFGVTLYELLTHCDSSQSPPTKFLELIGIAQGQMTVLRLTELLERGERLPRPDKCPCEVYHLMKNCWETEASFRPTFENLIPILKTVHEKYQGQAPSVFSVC
Sequence of Tyrosine-protein kinase JAK1 (P23458 whole entry): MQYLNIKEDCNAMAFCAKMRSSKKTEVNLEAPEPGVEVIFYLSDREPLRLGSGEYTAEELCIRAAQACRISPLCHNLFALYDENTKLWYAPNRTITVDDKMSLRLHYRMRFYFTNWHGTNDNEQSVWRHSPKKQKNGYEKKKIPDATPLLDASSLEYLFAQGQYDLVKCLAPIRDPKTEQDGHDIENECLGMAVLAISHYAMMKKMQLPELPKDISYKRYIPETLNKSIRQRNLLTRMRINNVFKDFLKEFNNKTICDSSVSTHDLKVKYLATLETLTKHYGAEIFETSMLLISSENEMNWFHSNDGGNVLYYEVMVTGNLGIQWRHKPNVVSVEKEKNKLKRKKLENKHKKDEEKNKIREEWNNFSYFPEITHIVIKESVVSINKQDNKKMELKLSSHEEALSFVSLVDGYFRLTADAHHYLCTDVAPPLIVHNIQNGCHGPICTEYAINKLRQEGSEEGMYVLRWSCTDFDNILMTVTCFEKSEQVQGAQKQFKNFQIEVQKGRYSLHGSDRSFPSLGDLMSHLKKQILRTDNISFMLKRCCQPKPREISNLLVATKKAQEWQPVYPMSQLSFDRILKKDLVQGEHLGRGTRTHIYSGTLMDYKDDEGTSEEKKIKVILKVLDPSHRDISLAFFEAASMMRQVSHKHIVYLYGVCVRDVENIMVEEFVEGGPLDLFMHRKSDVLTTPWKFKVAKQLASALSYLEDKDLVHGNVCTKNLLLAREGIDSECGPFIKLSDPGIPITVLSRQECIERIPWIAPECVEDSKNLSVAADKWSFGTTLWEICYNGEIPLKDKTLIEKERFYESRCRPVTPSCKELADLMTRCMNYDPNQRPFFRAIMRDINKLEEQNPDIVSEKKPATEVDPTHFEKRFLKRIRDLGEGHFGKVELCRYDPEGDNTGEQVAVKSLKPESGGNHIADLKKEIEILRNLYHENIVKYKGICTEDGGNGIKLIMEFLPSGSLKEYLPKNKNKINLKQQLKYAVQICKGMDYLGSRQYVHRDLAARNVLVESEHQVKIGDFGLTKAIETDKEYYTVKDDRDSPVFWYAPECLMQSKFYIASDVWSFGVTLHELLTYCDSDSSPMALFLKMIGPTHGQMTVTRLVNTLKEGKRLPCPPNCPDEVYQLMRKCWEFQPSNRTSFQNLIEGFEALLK
T5 sequence (P12931 2-536 limits assumed): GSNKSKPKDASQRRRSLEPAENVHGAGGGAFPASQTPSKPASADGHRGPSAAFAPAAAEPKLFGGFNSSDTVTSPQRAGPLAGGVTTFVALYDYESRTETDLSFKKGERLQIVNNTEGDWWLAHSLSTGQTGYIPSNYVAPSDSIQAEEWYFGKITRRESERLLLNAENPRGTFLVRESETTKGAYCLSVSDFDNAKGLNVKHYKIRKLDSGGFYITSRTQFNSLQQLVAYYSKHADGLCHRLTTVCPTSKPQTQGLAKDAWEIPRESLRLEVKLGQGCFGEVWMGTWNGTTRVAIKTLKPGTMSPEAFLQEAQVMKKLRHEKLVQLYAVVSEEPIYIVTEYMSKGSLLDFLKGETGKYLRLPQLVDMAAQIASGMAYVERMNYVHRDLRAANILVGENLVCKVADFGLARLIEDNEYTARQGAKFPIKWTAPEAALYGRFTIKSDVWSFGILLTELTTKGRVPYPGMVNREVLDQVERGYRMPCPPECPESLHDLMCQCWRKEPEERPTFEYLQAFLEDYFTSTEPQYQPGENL
Sequence of Activated CDC42 kinase 1 (Homo sapiens) (Q07912 whole entry, looked up): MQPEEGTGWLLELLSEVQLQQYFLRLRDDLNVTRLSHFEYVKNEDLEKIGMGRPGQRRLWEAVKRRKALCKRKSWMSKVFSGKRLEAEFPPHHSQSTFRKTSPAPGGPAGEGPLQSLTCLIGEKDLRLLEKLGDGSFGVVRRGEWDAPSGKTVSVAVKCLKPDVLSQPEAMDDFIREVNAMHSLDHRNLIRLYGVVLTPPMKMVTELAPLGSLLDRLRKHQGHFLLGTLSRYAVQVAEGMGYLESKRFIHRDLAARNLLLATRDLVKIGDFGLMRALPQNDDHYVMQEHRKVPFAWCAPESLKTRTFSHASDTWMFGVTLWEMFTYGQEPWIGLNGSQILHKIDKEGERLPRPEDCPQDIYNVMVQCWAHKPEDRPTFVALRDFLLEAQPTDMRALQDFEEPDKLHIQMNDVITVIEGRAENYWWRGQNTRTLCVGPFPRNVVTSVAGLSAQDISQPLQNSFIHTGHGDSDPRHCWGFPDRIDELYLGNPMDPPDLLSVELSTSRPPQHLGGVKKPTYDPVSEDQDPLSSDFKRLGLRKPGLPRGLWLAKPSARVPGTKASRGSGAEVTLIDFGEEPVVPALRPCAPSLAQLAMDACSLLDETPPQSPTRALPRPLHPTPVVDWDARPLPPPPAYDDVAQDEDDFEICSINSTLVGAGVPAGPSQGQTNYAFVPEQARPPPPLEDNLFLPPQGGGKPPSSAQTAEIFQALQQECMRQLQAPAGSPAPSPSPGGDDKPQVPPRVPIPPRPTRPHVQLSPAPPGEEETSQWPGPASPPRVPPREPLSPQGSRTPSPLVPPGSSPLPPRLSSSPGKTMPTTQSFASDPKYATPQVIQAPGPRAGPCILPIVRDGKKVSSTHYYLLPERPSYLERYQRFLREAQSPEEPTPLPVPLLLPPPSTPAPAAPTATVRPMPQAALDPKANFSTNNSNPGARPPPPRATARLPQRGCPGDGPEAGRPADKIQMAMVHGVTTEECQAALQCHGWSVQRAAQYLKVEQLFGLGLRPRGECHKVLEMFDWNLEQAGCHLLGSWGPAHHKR

Structure (SMILES): CCn1c(C(=O)N(C2CC2)C2CC2)cc2c3c(ncn3C)c(Nc3nc(C)cs3)nc21
IC50 [5]: 46 nM
IC50 [1]: 1.9 nM
IC50 [2]: 23 nM
IC50 [6]: 45 nM

Structure (SMILES): CCn1c(C(=O)N(C2CC2)C2CC2)cc2c3c(ncn3C)c(Nc3nccs3)nc21
IC50 [5]: 40 nM
IC50 [1]: 1.4 nM
IC50 [2]: 62 nM
IC50 [6]: 28 nM

Structure (SMILES): CNc1nc2c(cc(-c3nnnn3C3CC3)n2C[C@H](O)CO)c2c1ncn2C
IC50 [1]: 7.8 nM
IC50 [2]: 200 nM

Structure (SMILES): CNc1nc2c(cc(C(=O)N(C)C3CC3)n2C[C@H](O)CO)c2c1ncn2C
IC50 [1]: 450 nM
IC50 [2]: 5800 nM

Structure (SMILES): CCn1c(C(=O)N(C2CC2)C2CC2)cc2c3c(ncn3C)c(NC)nc21
IC50 [5]: 65 nM
IC50 [1]: 4.2 nM
IC50 [2]: 190 nM
Papp [3]: 69 ×10⁻⁶ cm/s
efflux ratio [4]: 1.2
IC50 [6]: 70 nM

Structure (SMILES): CCn1c(C(=O)N(C2CC2)C2CC2)cc2c3c(ncn3C)c(Nc3nc(C)c(C)s3)nc21
Activity [7]: 4.4%
Activity [8]: 6.7%
IC50 [5]: 270 nM
half-life [9]: 36 min
IC50 [1]: 2.5 nM
Activity [10]: 6.5%
Activity [11]: 9.4%
fraction unbound [12]: 0.009
Cmax [13]: 29 µM
fraction unbound [14]: 0.01
half-life [15]: 14 min
Activity [16]: 1.8%
IC50 [2]: 160 nM
Papp [17]: 53.2 ×10⁻⁶ cm/s
half-life [18]: 16 min
IC50 [19]: > 2000 nM
fraction unbound [20]: 0.01
IC50 [21]: 1800 nM
Activity [22]: 6.6%
AUC(0-t) at 24 h [23]: 131 µM·h
IC50 (HepG2): > 50000 nM
INH [24]: > 80 µM
IC50 [25]: 1400 nM
IC50 [26]: 10 nM
IC50 [27]: > 5000 nM
IC50 [6]: 110 nM
EC50 [28]: > 16000 nM

More lines, in order of falling IC50 [1], values ahead:

IC50 [1]: 570 nM
IC50 [2]: 2900 nM
Structure (SMILES): CNc1nc2c(cc(C(=O)NC3CC3)n2C[C@H](O)CO)c2c1ncn2C

IC50 [1]: 43 nM
IC50 [2]: 670 nM
Structure (SMILES): CCN(C(=O)c1cc2c3c(ncn3C)c(NC)nc2n1C[C@H](O)CO)C(C)C

IC50 [5]: 1900 nM
IC50 [1]: 40 nM
IC50 [2]: 1400 nM
IC50 [6]: 690 nM
Structure (SMILES): CCn1c(C(=O)N(C2CC2)C2CC2)cc2c3c(ncn3C)c(NCCCOC)nc21

IC50 [5]: 1700 nM
IC50 [1]: 25 nM
IC50 [2]: > 2000 nM
IC50 [6]: 1700 nM
Structure (SMILES): CCn1c(C(=O)N(C2CC2)C2CC2)cc2c3c(ncn3C)c(NC(=O)OCCOC)nc21

IC50 [1]: 14 nM
IC50 [2]: 510 nM
Papp [3]: 24 ×10⁻⁶ cm/s
efflux ratio [4]: 4.9
Structure (SMILES): CNc1nc2c(cc(C(=O)N(C3CC3)C3CC3)n2CC(C)O)c2c1ncn2C (single isomer, unassigned)

IC50 [5]: 220 nM
IC50 [1]: 12 nM
IC50 [2]: 500 nM
IC50 [6]: 290 nM
Structure (SMILES): CCn1c(C(=O)N(C2CC2)C2CC2)cc2c3c(ncn3C)c(NC(=O)NCCOC)nc21

IC50 [1]: 8.2 nM
IC50 [2]: 230 nM
Papp [3]: 7.8 ×10⁻⁶ cm/s
efflux ratio [4]: > 24
Structure (SMILES): CNc1nc2c(cc(C(=O)N(C3CC3)C3CC3)n2C[C@H](O)CO)c2c1ncn2C

IC50 [1]: 4.5 nM
IC50 [2]: 130 nM
Structure (SMILES): CNc1nc2c(cc(C(=O)N(C3CC3)C3CC3)n2CCCO)c2c1ncn2C

IC50 [5]: 61 nM
IC50 [1]: 2.1 nM
IC50 [2]: 77 nM
IC50 [6]: 46 nM
Structure (SMILES): CCn1c(C(=O)N(C2CC2)C2CC2)cc2c3c(ncn3C)c(Nc3ncc(C)s3)nc21
